Reference: ChEMBL document CHEMBL1156298, “New inhibitors for expression of IgE receptor on human mast cell” (Bioorg Med Chem Lett, 2010)
Calls of active or inactive are those of the source. The calls are words filed in the database; no cut-off is given here.

Columns and labels:
HMC1 [1] = experiment: Inhibition of FCepsilonRI expression in human HMC1 cells at 100 uM after 72 hrs by flow cytometry; assay type: functional, cell-based
[2] = Cytotoxicity against human HMC1 cells assessed induction of morphological changes at 50 uM; settings: hmc1, 50 µM
HMC1 [3] = experiment: Inhibition of FCepsilonRI expression in human HMC1 cells at 50 to 100 uM after 72 hrs by flow cytometry; assay type: functional, cell-based
[4] = Cytotoxicity against human HMC1 cells assessed induction of cell death at 50 uM; assay type: cell-based; settings: hmc1, 50 µM
HMC1 [5] = experiment: Inhibition of FCepsilonRI alpha subunit mRNA expression in human HMC1 cells at 50 uM after 36 hrs by RT-PCR analysis; assay type: functional, cell-based
HMC1 [6] = experiment: Inhibition of FCepsilonRI gamma subunit mRNA expression in human HMC1 cells at 50 uM after 36 hrs by RT-PCR analysis; assay type: functional, cell-based
HMC1 [7] = experiment: Inhibition of FCepsilonRI beta subunit mRNA expression in human HMC1 cells at 50 uM after 36 hrs by RT-PCR analysis; assay type: functional, cell-based

SMILES | inhibition (HMC1 [1]) | Activity [2] | inhibition (HMC1 [3]) | also measured
O=C(O[C@@H]1Cc2c(O)cc(O)cc2O[C@@H]1c1ccc(O)c(O)c1)c1cc(O)c(O)c(O)c1 | Active | – | – | –
O=c1cc(-c2ccc(O)c(O)c2)oc2c([C@@H]3O[C@H](CO)[C@@H](O)[C@H](O)[C@H]3O)c(O)cc(O)c12 [ORIENTIN] | – | Toxic | – | –
COc1c(O)cc(C(=O)O[C@@H]2Cc3c(O)cc(O)cc3O[C@@H]2c2cc(O)c(O)c(O)c2)cc1O | inactive | – | inactive | –
COc1cc(C(=O)O[C@@H]2Cc3c(O)cc(O)cc3O[C@@H]2c2cc(O)c(O)c(O)c2)cc(O)c1O | inactive | – | inactive | –
O=c1cc(-c2ccccc2)oc2c(O)c(O)cc(O)c12 [NORWOGONIN] | – | – | – | Activity [4]: Toxic
COc1cc([C@H]2Oc3cc(O)cc(O)c3C[C@H]2OC(=O)c2cc(O)c(O)c(O)c2)cc(O)c1O | inactive | – | inactive | –
O=c1cc(-c2ccc(O)cc2)oc2cc(O)cc(O)c12 [APIGENIN] | – | Toxic | – | –
O=c1cc(-c2ccc(O)c(O)c2)oc2cc(O)cc(O)c12 [LUTEOLIN] | – | Toxic | – | –
COc1c(O)cc(O)c2c(=O)cc(-c3ccccc3)oc12 [WOGONIN] | – | Toxic | – | –
O=C(O[C@@H]1Cc2c(O)cc(O)cc2O[C@H]1c1cc(O)c(O)c(O)c1)c1cc(O)c(O)c(O)c1 | Active | – | – | –
O=c1cc(-c2cc(O)c(O)c(O)c2)oc2cc(O)cc(O)c12 | – | – | Active | –
O=C(O[C@@H]1Cc2c(O)cc(O)cc2O[C@@H]1c1cc(O)c(O)c(O)c1)c1cc(O)c(O)c(O)c1 | – | – | – | inhibition (HMC1 [5]): inactive; inhibition (HMC1 [6]): Active; inhibition (HMC1 [7]): inactive
O=c1cc(-c2ccc(O)cc2)oc2cc(O)c(O)c(O)c12 [SCUTELLAREIN] | – | – | – | Activity [4]: Toxic
COc1c(O)cc([C@H]2Oc3cc(O)cc(O)c3C[C@H]2OC(=O)c2cc(O)c(O)c(O)c2)cc1O | inactive | – | inactive | –
O=c1cc(-c2ccccc2)oc2cc(O)c(O)c(O)c12 [BAICALEIN] | – | Toxic | – | –
Oc1cc(O)c2cc(O)c(-c3ccc(O)c(O)c3)[o+]c2c1 [CYANIDIN] | – | Toxic | – | –
COc1cc(-c2[o+]c3cc(O)cc(O)c3cc2O)cc(OC)c1O [MALVIDIN] | – | Toxic | – | –
Oc1cc(O)c2cc(O)c(-c3cc(O)c(O)c(O)c3)[o+]c2c1 | – | – | Active | –
Oc1cc(O)c2c(c1)O[C@H](c1ccc(O)c(O)c1)[C@H](O)C2 | Active | – | – | –
